Reference: patent US20240239792A1, “MODULATORS OF BCL-2 OR BCL-2/BCL-XL AND USES THEREOF” (APPICINE THERAPEUTICS (HK) LIMITED, priority 2021, published 2024)

Columns and labels:
BCL-XL = biological target: T1, BCL-XL (Homo sapiens, UniProt Q07817); assay: HTRF BCL-XL/BAK assay (Cisbio); assay type: binding; details: recombinant human Tag1-BCL-XL 2 nM, Tag2-BAK 5 nM
T1 construct: purchased Cisbio 63ADK000CB04PEG
Description: (§1) Then the pre-mixed anti-Tag1-Eu^3+ and anti-tag2-XL665 were added to the plate and further incubated at room temperature for another 2 hours. The signals ([…]) were read on Envision 2104 instrument. The IC50 for each compound was derived from fitting the signal of 665/615 nM to the increasing compound concentration.
(§2) Using the above assays, the following compounds were tested.

BCL-2 = biological target: T2, BCL-2 (Homo sapiens, UniProt P10415); assay: HTRF BCL-2/BAK assay (Cisbio); assay type: binding; details: recombinant human Tag1-BCL-2 2 nM, Tag2-BAK 10 nM
T2 construct: purchased Cisbio 63ADK000CB01PEG
Description: as §1, §2

DOHH2 cells = assay: CellTiter-Glo cell proliferation assay, DOHH2 cells; assay type: cell-based; details: Homo sapiens, DOHH-2, 72 hours
Outline: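 GI50 derived from CellTiter-Glo luminescent viability signal. Cells grown in DMEM with 10% FBS received a compound dilution series for 72 h (37 °C, 5% CO2).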

T1 sequence (Q07817 whole entry): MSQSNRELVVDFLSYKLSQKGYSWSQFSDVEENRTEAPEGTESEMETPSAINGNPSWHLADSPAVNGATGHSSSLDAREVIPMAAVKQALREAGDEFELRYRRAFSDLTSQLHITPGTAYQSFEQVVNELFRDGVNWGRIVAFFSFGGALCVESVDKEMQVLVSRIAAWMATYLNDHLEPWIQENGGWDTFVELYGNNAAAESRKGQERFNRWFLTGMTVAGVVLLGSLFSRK
T2 sequence (P10415 whole entry): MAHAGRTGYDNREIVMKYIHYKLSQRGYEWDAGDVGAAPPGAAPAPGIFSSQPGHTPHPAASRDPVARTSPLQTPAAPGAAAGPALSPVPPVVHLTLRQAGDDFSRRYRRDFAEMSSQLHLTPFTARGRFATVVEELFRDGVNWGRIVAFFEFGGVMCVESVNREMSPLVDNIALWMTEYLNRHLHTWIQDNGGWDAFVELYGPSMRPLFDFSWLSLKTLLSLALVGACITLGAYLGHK

Structure (SMILES) | IC50 (BCL-XL) [nM] | IC50 (BCL-2) [nM] | GI50 (DOHH2 cells) [nM]
O=C(NS(=O)(=O)c1ccc(NCCN2CC3CC2CO3)c([N+](=O)[O-])c1)c1ccc(N2CCN(C3CCCCc4c(Cl)cccc43)CC2)cc1Oc1cnc2[nH]ccc2c1 (stereo not drawn) [Compound 41, 2-((1H-pyrrolo[2,3-b]pyridin-5-yl)oxy)-N-((4-((2-(2-oxa-5-azabicyclo[2.2.1]heptan-5-yl)ethyl)amino)-3-nitrophenyl)sulfonyl)-4-(4-(1-chloro-6,7,8,9-tetrahydro-5H-benzo[7]annulen-5-yl)piperazin-1-yl)benzamide] | < 20 | < 20 | 50 to 500
O=C(NS(=O)(=O)c1ccc(NC[C@H]2CO[C@H]3OCC[C@@H]23)c([N+](=O)[O-])c1)c1ccc(N2CCN([C@@H]3CCCCc4c(Br)cc(F)cc43)CC2)cc1Oc1cnc2[nH]ccc2c1 (relative stereo) [Compound 82, 2-((1H-pyrrolo[2,3-b]pyridin-5-yl)oxy)-4-(4-((R)-1-bromo-3-fluoro-6,7,8,9-tetrahydro-5H-benzo[7]annulen-5-yl)piperazin-1-yl)-N-((4-((((3S,3aS,6aR)-hexahydrofuro[2,3-b]furan-3-yl)methyl)amino)-3-nitrophenyl)sulfonyl)benzamide] | 200 to 2000 | < 20 | 500 to 5000
CP(C)(=O)c1cccc2c1CCCCC2N1CCN(c2ccc(C(=O)NS(=O)(=O)c3ccc(NCC4CCOCC4)c([N+](=O)[O-])c3)c(Oc3cnc4[nH]ccc4c3)c2)CC1 (stereo not drawn) [Compound 63, 2-((1H-pyrrolo[2,3-b]pyridin-5-yl)oxy)-4-(4-(1-(dimethylphosphoryl)-6,7,8,9-tetrahydro-5H-benzo[7]annulen-5-yl)piperazin-1-yl)-N-((3-nitro-4-(((tetrahydro-2H-pyran-4-yl)methyl)amino)phenyl)sulfonyl)benzamide] | > 2000 | 20 to 200 | > 5000
O=C(NS(=O)(=O)c1ccc(NCC2CCOCC2)c([N+](=O)[O-])c1)c1ccc(N2CCN(C3CCCCc4ccc([N+](=O)[O-])cc43)CC2)cc1Oc1cnc2[nH]ccc2c1 (stereo not drawn) [Compound 30, 2-((1H-pyrrolo[2,3-b]pyridin-5-yl)oxy)-N-((3-nitro-4-(((tetrahydro-2H-pyran-4-yl)methyl)amino)phenyl)sulfonyl)-4-(4-(3-nitro-6,7,8,9-tetrahydro-5H-benzo[7]annulen-5-yl)piperazin-1-yl)benzamide] | 200 to 2000 | < 20 | 500 to 5000
O=C(NS(=O)(=O)c1ccc(NCC2CCOCC2)c([N+](=O)[O-])c1)c1ccc(N2CCN(C3CCCCc4c(C5=CCCC5)cccc43)CC2)cc1Oc1cnc2[nH]ccc2c1 (stereo not drawn) [Compound 47, 2-((1H-pyrrolo[2,3-b]pyridin-5-yl)oxy)-4-(4-(1-(cyclopent-1-en-1-yl)-6,7,8,9-tetrahydro-5H-benzo[7]annulen-5-yl)piperazin-1-yl)-N-((3-nitro-4-(((tetrahydro-2H-pyran-4-yl)methyl)amino)phenyl)sulfonyl)benzamide] | > 2000 | 20 to 200 | > 5000
O=C(NS(=O)(=O)c1ccc(NCC2CCOCC2)c([N+](=O)[O-])c1)c1ccc(N2CCN(C3CCCCc4c3cccc4[N+](=O)[O-])CC2)cc1Oc1cnc2[nH]ccc2c1 (stereo not drawn) [Compound 33, 2-((1H-pyrrolo[2,3-b]pyridin-5-yl)oxy)-N-((3-nitro-4-(((tetrahydro-2H-pyran-4-yl)methyl)amino)phenyl)sulfonyl)-4-(4-(1-nitro-6,7,8,9-tetrahydro-5H-benzo[7]annulen-5-yl)piperazin-1-yl)benzamide] | 20 to 200 | < 20 | < 50
O=C(NS(=O)(=O)c1cccc([N+](=O)[O-])c1)c1ccc(N2CCN(C3CCCc4cccc(-c5ccc(Cl)cc5)c43)CC2)cc1Oc1cnc2[nH]ccc2c1 (stereo not drawn) [Compound 13, 2-((1H-pyrrolo[2,3-b]pyridin-5-yl)oxy)-4-(4-(8-(4-chlorophenyl)-1,2,3,4-tetrahydronaphthalen-1-yl)piperazin-1-yl)-N-((3-nitrophenyl)sulfonyl)benzamide] | 200 to 2000 | 20 to 200 | 500 to 5000
O=C(NS(=O)(=O)c1ccc(NCC2CCOCC2)c([N+](=O)[O-])c1)c1ccc(N2CCN(C3CCCCc4cc(Cl)ccc43)CC2)cc1Oc1cnc2[nH]ccc2c1 (stereo not drawn) [Compound 25, 2-((1H-pyrrolo[2,3-b]pyridin-5-yl)oxy)-4-(4-(2-chloro-6,7,8,9-tetrahydro-5H-benzo[7]annulen-5-yl)piperazin-1-yl)-N-((3-nitro-4-(((tetrahydro-2H-pyran-4-yl)methyl)amino)phenyl)sulfonyl)benzamide] | 200 to 2000 | 20 to 200 | 50 to 500
O=C(NS(=O)(=O)c1ccc(NCC2CCOCC2)c([N+](=O)[O-])c1)c1ccc(N2CCN(C3CCCCc4ccc(Br)cc43)CC2)cc1Oc1cnc2[nH]ccc2c1 (stereo not drawn) [Compound 21, 2-((1H-pyrrolo[2,3-b]pyridin-5-yl)oxy)-4-(4-(3-bromo-6,7,8,9-tetrahydro-5H-benzo[7]annulen-5-yl)piperazin-1-yl)-N-((3-nitro-4-(((tetrahydro-2H-pyran-4-yl)methyl)amino)phenyl)sulfonyl)benzamide] | > 2000 | < 20 | 50 to 500
CC(C)(C)OC(=O)NCCN1CCC2(CC1)CC(CNc1ccc(S(=O)(=O)NC(=O)c3ccc(N4CCN([C@@H]5CCCCc6c(Cl)cccc65)CC4)cc3)cc1[N+](=O)[O-])C2 [Compound 119, tert-butyl (R)-(2-(2-(((4-(N-(4-(4-(1-chloro-6,7,8,9-tetrahydro-5H-benzo[7]annulen-5-yl)piperazin-1-yl)benzoyl)sulfamoyl)-2-nitrophenyl)amino)methyl)-7-azaspiro[3.5]nonan-7-yl)ethyl)carbamate] | 200 to 2000 | 20 to 200 | 50 to 500

Continued, in another order:

IC50 (BCL-XL) [nM] | IC50 (BCL-2) [nM] | Structure (SMILES) | GI50 (DOHH2 cells) [nM]
< 20 | < 20 | O=C(NS(=O)(=O)c1ccc(NCCN2CCC3(CC2)COC3)c([N+](=O)[O-])c1)c1ccc(N2CCN(C3CCCCc4c(Cl)cccc43)CC2)cc1Oc1cnc2[nH]ccc2c1 (stereo not drawn) [Compound 42, 2-((1H-pyrrolo[2,3-b]pyridin-5-yl)oxy)-N-((4-((2-(2-oxa-7-azaspiro[3.5]nonan-7-yl)ethyl)amino)-3-nitrophenyl)sulfonyl)-4-(4-(1-chloro-6,7,8,9-tetrahydro-5H-benzo[7]annulen-5-yl)piperazin-1-yl)benzamide] | 50 to 500
20 to 200 | < 20 | O=C(NS(=O)(=O)c1ccc(NCC2CCC3(CC2)COC3)c([N+](=O)[O-])c1)c1ccc(N2CCN([C@@H]3CCCCc4c3cccc4[N+](=O)[O-])CC2)cc1Oc1cnc2[nH]ccc2c1 [Compound 74, (R)-2-((1H-pyrrolo[2,3-b]pyridin-5-yl)oxy)-N-((4-(((2-oxaspiro[3.5]nonan-7-yl)methyl)amino)-3-nitrophenyl)sulfonyl)-4-(4-(1-nitro-6,7,8,9-tetrahydro-5H-benzo[7]annulen-5-yl)piperazin-1-yl)benzamide] | < 50
20 to 200 | < 20 | O=C(NS(=O)(=O)c1ccc(NCC2CCC3(CC2)COC3)c([N+](=O)[O-])c1)c1ccc(N2CCN([C@@H]3CCCCc4c(Br)cccc43)CC2)cc1Oc1cnc2[nH]ccc2c1 [Compound 67, (R)-2-((1H-pyrrolo[2,3-b]pyridin-5-yl)oxy)-N-((4-(((2-oxaspiro[3.5]nonan-7-yl)methyl)amino)-3-nitrophenyl)sulfonyl)-4-(4-(1-bromo-6,7,8,9-tetrahydro-5H-benzo[7]annulen-5-yl)piperazin-1-yl)benzamide] | < 50
20 to 200 | < 20 | O=C(NS(=O)(=O)c1ccc(NCC2CCOCC2)c([N+](=O)[O-])c1)c1ccc(N2CCN([C@@H]3CCCCc4c3cccc4[N+](=O)[O-])CC2)cc1Oc1cnc2[nH]ccc2c1 [Compound 73, (R)-2-((1H-pyrrolo[2,3-b]pyridin-5-yl)oxy)-N-((3-nitro-4-(((tetrahydro-2H-pyran-4-yl)methyl)amino)phenyl)sulfonyl)-4-(4-(1-nitro-6,7,8,9-tetrahydro-5H-benzo[7]annulen-5-yl)piperazin-1-yl)benzamide] | 50 to 500
20 to 200 | < 20 | O=C(NS(=O)(=O)c1ccc(NCC2CC3(COC3)C2)c([N+](=O)[O-])c1)c1ccc(N2CCN([C@@H]3CCCCc4c(Br)cccc43)CC2)cc1Oc1cnc2[nH]ccc2c1 [Compound 77, (R)-2-((1H-pyrrolo[2,3-b]pyridin-5-yl)oxy)-N-((4-(((2-oxaspiro[3.3]heptan-6-yl)methyl)amino)-3-nitrophenyl)sulfonyl)-4-(4-(1-bromo-6,7,8,9-tetrahydro-5H-benzo[7]annulen-5-yl)piperazin-1-yl)benzamide] | < 50
20 to 200 | < 20 | O=C(NS(=O)(=O)c1ccc(NCC2CC3(COC3)C2)c([N+](=O)[O-])c1)c1ccc(N2CCN([C@@H]3CCCCc4c(Cl)cccc43)CC2)cc1Oc1cnc2[nH]ccc2c1 [Compound 72, (R)-2-((1H-pyrrolo[2,3-b]pyridin-5-yl)oxy)-N-((4-(((2-oxaspiro[3.3]heptan-6-yl)methyl)amino)-3-nitrophenyl)sulfonyl)-4-(4-(1-chloro-6,7,8,9-tetrahydro-5H-benzo[7]annulen-5-yl)piperazin-1-yl)benzamide] | < 50
